Test results as given in US20190178889A1, “HIGH-THROUGHPUT SCREENING ASSAY” (BellBrook Labs, priority 2016, published 2019).

Assays:
cGAMP mAb6 = assay: competitive FP immunoassay, cGAMP mAb6 with cGAMP-Atto 633 tracer; assay type: binding, mouse; details: for binding to mAb6: ATP and GTP at more than 10^4-fold excess over half-maximal cGAMP concentration
From the text: Importantly, neither of these other cyclic dinucleotides are known to be endogenous in mammalian cells.

scFvs against haptens = details: affinity-matured scFvs, yeast display; read-out: Kds of scFvs; cited from earlier work
[1] = tested on: mouse antiserum (cGAMP antibody); assay: FP binding of mouse antiserum to fluorescein-cGAMP tracer with competitor nucleotides; details: competitor 10 μM, tracer 4 nM
full length human cGAS [2] = molecular target: T1, full length human cGAS (Homo sapiens, UniProt Q8N884); assay: cGAS enzyme assay with cGAMP FP detection; assay type: biochemical; design: Assays using highly purified, full length human cGAS were performed; 6xHis; made in house; host or cells: E. coli BL21 DE3 (Rosetta DE3, Novagen), T7 expression vector
Description: FIG. 9 includes A) a plot showing detection of purified, full-length cGAS: cGAS enzyme titrations show a dose-dependent assay signal, as discussed in more detail in Example 2, below; N- and C-terminal His-tagged cGAS was prepared according to Example 4 (100 μM ATP and GTP, 62.5 nM 45 bp ISD DNA, 60 min reactions); […]; C) Confirmation that recombinant hcGAS was activated by ds DNA; half maximal responses of 3.5 and 5.9 nM for HSV 60 and ISD 45, respectively; D) ATP and GTP dependence: ATP and GTP were titrated separately and simultaneously; half maximal cGAS activity at 80 μM of both nucleotide; E) Dose response for cGAS inhibition by two flavonoids; F) a plot showing the results of an interference screen: the library of 1280 pharmacologically active compounds, available from Sigma (the “LOPAC library”) was used to test for compound interference with detection reagents as discussed in more detail in Example 2, below; wells contained all cGAS enzyme reaction components except the cGAS enzyme; positive controls contained 1 μM cGAMP, negative controls contained no cGAMP; […]; negative controls lacked dsDNA required for cGAS activation; H) an image of a coomassie blue stained SDS gel (top) and western blot (bottom) of purified 6×HIS-cGAS (Lane 1) and cGAS-6×His (Lane 2) prepared according to Example 4; Z=0.62, Z′=0.7.
cGAS is one of four oligoadenylate synthases, nucleic acid sensors that activate innate immunity via production of short, 2′-5′ oligoadenylate secondary messengers (35); […]. Binding of dsDNA and DNA:RNA hybrids to cGAS induces a conformational transition in an activation loop, not unlike the displacement of inhibitory domains by autophosphorylation in protein kinases (Zhang, et al., 2014, Cell Rep 6(3):421-30; Fabbro, et al., 2012, Methods Mol Biol 795:1-34). The full-length enzyme was used to insure that all of the potential allosteric sites were present and that the enzyme was able to sample its full conformational repertoire. Prior to running cGAS enzyme reactions, the effect of cGAS reaction components, including ATP and GTP Brij 35, NaCl, Brij 35, and dsDNA on the detection reagents was examined; no significant effects were observed. Assays using highly purified, full length human cGAS were performed. The full-length human cGAS was prepared according to Example 4, below. Additionally, third-party-provided cGAS (Sun, et al., 2013, Science 339(6121):786-91) was used for comparative purposes. Some enzyme assays were run in kinetic mode; i.e., the detection reagents were present during the enzyme reactions, and the plates were read periodically, and others were run in endpoint mode, using EDTA to quench the reaction.
. The enzyme data was graphed as the net change in polarization; […]. Conversion of polarization to cGAMP formation using a standard curve confirmed that product formation was linear with cGAS concentration (FIG. 9B); […]. There was essentially no quantitative activity data available for cGAS prior to the instant disclosure and the kcat values of approximately 1 min^−1 determined herein (at non-saturating ATP and GTP) were the first reported cGAS kinetic parameters. The generation of a good signal (i.e., ≥100 mP) with less than 10 nM cGAS is important for two reasons. It reduces the time and cost to prepare for a large screen by minimizing enzyme usage; for example, screening 1M (one million) compounds at 10 nM cGAS will require only 12 mg of enzyme. […]

full length human cGAS [3] = molecular target: T1, full length human cGAS; assay: cGAS enzyme assay with cGAMP TR-FRET detection
[4] = both nucleotides combined (titrated simultaneously), read-out: half maximal concentration of ATP and GTP for cGAS activity

T1 sequence (Q8N884 whole entry): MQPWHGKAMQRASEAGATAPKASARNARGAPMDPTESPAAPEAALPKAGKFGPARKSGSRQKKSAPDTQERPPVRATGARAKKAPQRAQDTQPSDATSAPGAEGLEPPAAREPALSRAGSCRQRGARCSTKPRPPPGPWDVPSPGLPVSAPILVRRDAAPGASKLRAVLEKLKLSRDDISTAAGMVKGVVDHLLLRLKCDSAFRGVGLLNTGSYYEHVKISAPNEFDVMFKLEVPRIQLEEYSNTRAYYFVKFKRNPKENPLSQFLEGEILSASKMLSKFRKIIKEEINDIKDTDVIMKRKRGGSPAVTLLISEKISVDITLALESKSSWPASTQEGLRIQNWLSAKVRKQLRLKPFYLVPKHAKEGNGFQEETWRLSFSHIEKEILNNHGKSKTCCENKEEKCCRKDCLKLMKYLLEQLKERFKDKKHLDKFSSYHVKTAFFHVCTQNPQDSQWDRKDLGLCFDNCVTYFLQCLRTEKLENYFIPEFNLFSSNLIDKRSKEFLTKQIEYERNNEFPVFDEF

Molecule: Nc1nc2c(ncn2[C@@H]2O[C@@H]3COP(=O)(O)O[C@H]4[C@@H](O)[C@H](n5cnc6c(N)ncnc65)O[C@@H]4COP(=O)(O)O[C@H]3[C@H]2O)c(=O)[nH]1 [3′,3′ cGAMP]
- binding to mAb6 (cGAMP mAb6; FP competition curves, FIG. 8E): did not bind

Molecule: O=C(O)CN1CCN(CC(=O)O)CCN(CC(=O)O)CCN(CC(=O)O)CC1 [DOTA]
- Kd (scFvs against haptens): 0.0082 nM

Molecule: Nc1ncnc2c1ncn2[C@@H]1O[C@H](COP(=O)(O)OP(=O)(O)OP(=O)(O)O)[C@@H](O)[C@H]1O [ATP]
- binding to mAb6 (cGAMP mAb6; FP competition curves, FIG. 8E): no detectable binding
- effect of excess competitor on antiserum/tracer binding curve [1]: no effect
- EC50 (full length human cGAS [2]; [4]): 80000 nM

Molecule: Nc1nc2c(ncn2[C@@H]2O[C@@H]3COP(=O)(O)O[C@H]4[C@@H](O)[C@H](n5cnc6c(N)ncnc65)O[C@@H]4COP(=O)(O)O[C@@H]2[C@@H]3O)c(=O)[nH]1 [2′,3′ cGAMP, G(2′-5′)pA(3′-5′)p]
- polarization shift (cGAMP mAb6; at 500 nM cGAMP, 0.5-0.6 μg/ml mAb6): approximately 130 mP
- effect of excess competitor on antiserum/tracer binding curve [1]: right-shifted by approximately two orders of magnitude

Molecule: cGAS: highly purified, full length human cyclic GMP-AMP synthase
- EC50 (full length human cGAS [3]; read-out: EC50, cGAS enzyme titration, TR-FRET assay, FIG. 10E): ~5 nM
- EC50 (full length human cGAS [2]; FP assay, depending on the preparation, 100 μM ATP and GTP, 62.5 nM 45 bp ISD DNA, 60 min, read-out: half-maximal change (EC50) of polarization, cGAS enzyme titration): 6 to 12 nM
- Kcat (full length human cGAS [2]; cGAMP FP assay, non-saturating ATP and GTP): approximately 1 min^−1

Molecule: Nc1ncnc2c1ncn2[C@@H]1O[C@H](COP(=O)(O)OP(=O)(O)O)[C@@H](O)[C@H]1O [ADP]
- binding to mAb6 (cGAMP mAb6; FP competition curves, FIG. 8E): lack of binding

Molecule: cGAS-His: full-length human cGAS having a 6×His at the C-terminus
- Kcat (full length human cGAS [3]; determined by TR-FRET): 1.58
- Kcat (full length human cGAS [2]; determined by FP): 1.21

Molecule: Nc1nc2c(ncn2C2OC3COP(=O)(O)OC4C(O)C(COP(=O)(O)OC3C2O)OC4n2cnc3c(=O)[nH]c(N)nc32)c(=O)[nH]1 (stereo not drawn) [2′,3′ cyclic di-GMP]
- IC50 (cGAMP mAb6; FP competition curves, FIG. 8E, read-out: 1050 values (competition, displacement of tracer from mAb6)): 250 nM

Molecule: Nc1nc2c(ncn2[C@@H]2O[C@H](COP(=O)(O)OP(=O)(O)OP(=O)(O)O)[C@@H](O)[C@H]2O)c(=O)[nH]1 [GTP]
- binding to mAb6 (cGAMP mAb6; FP competition curves, FIG. 8E): no detectable binding
- effect of excess competitor on antiserum/tracer binding curve [1]: no effect
- EC50 (full length human cGAS [2]; [4]): 80000 nM

Molecule: Nc1nc2c(ncn2[C@@H]2O[C@@H]3COP(=O)(O)O[C@H]3[C@H]2O)c(=O)[nH]1 [cGMP]
- binding to mAb6 (cGAMP mAb6; FP competition curves, FIG. 8E): lack of binding
